Measured values published in the NIST ThermoML archive (doi:10.1021/acs.jced.6b00691).

Experiment: xn = mol fraction of the nth substance listed
Conditions: Liquid, Taylor dispersion method, x2 = 0

CCCCCCCCCCCC [dodecane] + O=C=O
Conditions | binary diffusion coefficient [m2/s]
298 K, 1300 kPa | 3.72e-09
298 K, 24000 kPa | 3.1e-09
298 K, 47000 kPa | 2.65e-09
323 K, 1200 kPa | 5.53e-09
323 K, 25000 kPa | 4.23e-09
323 K, 46000 kPa | 3.65e-09
323 K, 63000 kPa | 3.44e-09
373 K, 1200 kPa | 9.3e-09
373 K, 24000 kPa | 7.57e-09
373 K, 46000 kPa | 6.54e-09
373 K, 61000 kPa | 5.98e-09
423 K, 1200 kPa | 1.35e-08
423 K, 23000 kPa | 1.14e-08
423 K, 46000 kPa | 9.75e-09
423 K, 65000 kPa | 8.65e-09

CC(C)CCCC(C)CCCC(C)CCCCC(C)CCCC(C)CCCC(C)C (centres undefined) [2,6,10,15,19,23-hexamethyltetracosane] + O=C=O
Conditions | binary diffusion coefficient [m2/s]
298 K, 1100 kPa | 9.6e-10
298 K, 10000 kPa | 8.6e-10
298 K, 32000 kPa | 6.9e-10
298 K, 52000 kPa | 5.6e-10
298 K, 66000 kPa | 4.9e-10
323 K, 1100 kPa | 1.78e-09
323 K, 10000 kPa | 1.61e-09
323 K, 30000 kPa | 1.35e-09
323 K, 52000 kPa | 1.14e-09
323 K, 64000 kPa | 1.02e-09
348 K, 1000 kPa | 2.83e-09
348 K, 11000 kPa | 2.57e-09
348 K, 31000 kPa | 2.18e-09
348 K, 50000 kPa | 1.94e-09
348 K, 67000 kPa | 1.73e-09
373 K, 1000 kPa | 4.06e-09
373 K, 10000 kPa | 3.72e-09
373 K, 30000 kPa | 3.21e-09
373 K, 47000 kPa | 2.88e-09
373 K, 66000 kPa | 2.58e-09
398 K, 1000 kPa | 5.45e-09
398 K, 11000 kPa | 4.98e-09
398 K, 31000 kPa | 4.38e-09
398 K, 50000 kPa | 3.89e-09
398 K, 66000 kPa | 3.55e-09
423 K, 1000 kPa | 7.01e-09
423 K, 11000 kPa | 6.36e-09
423 K, 30000 kPa | 5.69e-09
423 K, 50000 kPa | 5e-09
423 K, 67000 kPa | 4.6e-09

CCCCCCC [heptane] + O=C=O
binary diffusion coefficient [m2/s]
Conditions | 1000 kPa | 10000 kPa | 30000 kPa | 31000 kPa | 48000 kPa | 49000 kPa | 50000 kPa | 51000 kPa | 67000 kPa | 68000 kPa
298 K | 7.28e-09 | 6.82e-09 | – | 5.9e-09 | – | – | 5.37e-09 | – | – | 5.06e-09
323 K | 9.25e-09 | 8.72e-09 | 7.64e-09 | – | – | – | – | 6.95e-09 | – | 6.37e-09
348 K | 1.14e-08 | 1.02e-08 | 9.4e-09 | – | 8.1e-09 | – | – | – | 7.89e-09 | –
373 K | 1.37e-08 | 1.25e-08 | 1.12e-08 | – | – | 9.95e-09 | – | – | – | 9.32e-09
398 K | 1.61e-08 | 1.49e-08 | 1.31e-08 | – | – | – | 1.17e-08 | – | – | 1.09e-08
423 K | 1.8e-08 | 1.68e-08 | 1.5e-08 | – | – | – | 1.36e-08 | – | – | 1.23e-08

CCCCCCCCCCCCCCCC [hexadecane] + O=C=O
Conditions | binary diffusion coefficient [m2/s]
298 K, 1000 kPa | 2.49e-09
298 K, 10000 kPa | 2.31e-09
298 K, 30000 kPa | 2.08e-09
323 K, 1100 kPa | 3.75e-09
323 K, 10000 kPa | 3.41e-09
323 K, 30000 kPa | 3.17e-09
323 K, 51000 kPa | 2.61e-09
323 K, 69000 kPa | 2.51e-09
348 K, 1000 kPa | 5.13e-09
348 K, 10000 kPa | 4.64e-09
348 K, 30000 kPa | 4.37e-09
348 K, 50000 kPa | 3.77e-09
348 K, 67000 kPa | 3.49e-09
373 K, 1100 kPa | 6.72e-09
373 K, 10000 kPa | 6.17e-09
373 K, 30000 kPa | 5.88e-09
373 K, 52000 kPa | 4.84e-09
373 K, 67000 kPa | 4.67e-09
398 K, 1100 kPa | 8.53e-09
398 K, 29000 kPa | 7.42e-09
398 K, 53000 kPa | 6.27e-09
398 K, 69000 kPa | 5.86e-09
423 K, 1100 kPa | 1.04e-08
423 K, 10000 kPa | 9.72e-09
423 K, 29000 kPa | 9.16e-09
423 K, 45000 kPa | 7.96e-09
423 K, 69000 kPa | 7.07e-09

CCCCCC [hexane] + O=C=O
Conditions | binary diffusion coefficient [m2/s]
298 K, 1300 kPa | 8.32e-09
298 K, 23000 kPa | 7.27e-09
298 K, 49000 kPa | 6.06e-09
298 K, 65000 kPa | 5.13e-09
323 K, 1200 kPa | 1.05e-08
323 K, 22000 kPa | 9.27e-09
323 K, 50000 kPa | 7.61e-09
323 K, 66000 kPa | 7.15e-09
373 K, 1200 kPa | 1.58e-08
373 K, 22000 kPa | 1.34e-08
373 K, 49000 kPa | 1.1e-08
373 K, 64000 kPa | 1.03e-08
423 K, 1200 kPa | 1.87e-08
423 K, 22000 kPa | 1.79e-08
423 K, 48000 kPa | 1.49e-08
423 K, 64000 kPa | 1.37e-08

Cc1ccccc1 [toluene] + O=C=O
Conditions | binary diffusion coefficient [m2/s]
298 K, 1000 kPa | 5.53e-09
298 K, 11000 kPa | 5.09e-09
298 K, 30000 kPa | 4.77e-09
298 K, 48000 kPa | 4.28e-09
298 K, 68000 kPa | 3.92e-09
323 K, 1000 kPa | 7.28e-09
323 K, 10000 kPa | 6.78e-09
323 K, 30000 kPa | 6.32e-09
323 K, 49000 kPa | 5.7e-09
323 K, 66000 kPa | 5.17e-09
348 K, 1000 kPa | 9.26e-09
348 K, 11000 kPa | 8.62e-09
348 K, 30000 kPa | 8.02e-09
348 K, 48000 kPa | 7.31e-09
348 K, 67000 kPa | 6.54e-09
373 K, 1000 kPa | 1.14e-08
373 K, 10000 kPa | 1.04e-08
373 K, 30000 kPa | 9.81e-09
373 K, 51000 kPa | 8.94e-09
373 K, 67000 kPa | 8e-09
398 K, 1000 kPa | 1.38e-08
398 K, 10000 kPa | 1.24e-08
398 K, 30000 kPa | 1.17e-08
398 K, 48000 kPa | 1.05e-08
398 K, 68000 kPa | 9.6e-09
423 K, 1100 kPa | 1.6e-08
423 K, 10000 kPa | 1.5e-08
423 K, 30000 kPa | 1.4e-08
423 K, 50000 kPa | 1.23e-08
423 K, 67000 kPa | 1.14e-08

CCCCCCCCCC [decane] + O=C=O
Conditions | binary diffusion coefficient [m2/s]
298 K, 1100 kPa | 4.69e-09
298 K, 22000 kPa | 4e-09
298 K, 45000 kPa | 3.22e-09
298 K, 68000 kPa | 2.84e-09
323 K, 1100 kPa | 6.44e-09
323 K, 22000 kPa | 5.41e-09
323 K, 46000 kPa | 4.39e-09
323 K, 68000 kPa | 3.91e-09
373 K, 1100 kPa | 1.04e-08
373 K, 22000 kPa | 8.76e-09
373 K, 44000 kPa | 7.08e-09
373 K, 67000 kPa | 6.34e-09
423 K, 1100 kPa | 1.51e-08
423 K, 21000 kPa | 1.27e-08
423 K, 43000 kPa | 1.02e-08
423 K, 66000 kPa | 9.17e-09

CCCCCCCC [octane] + O=C=O
Conditions | binary diffusion coefficient [m2/s]
298 K, 1000 kPa | 6.32e-09
298 K, 11000 kPa | 5.66e-09
298 K, 33000 kPa | 4.72e-09
298 K, 50000 kPa | 4.28e-09
298 K, 66000 kPa | 3.83e-09
323 K, 900 kPa | 8.19e-09
323 K, 11000 kPa | 7.36e-09
323 K, 32000 kPa | 6.1e-09
323 K, 51000 kPa | 5.62e-09
323 K, 68000 kPa | 5.1e-09
348 K, 900 kPa | 1.04e-08
348 K, 11000 kPa | 8.98e-09
348 K, 33000 kPa | 7.7e-09
348 K, 50000 kPa | 7.07e-09
348 K, 69000 kPa | 6.54e-09
373 K, 1100 kPa | 1.26e-08
373 K, 11000 kPa | 1.11e-08
373 K, 31000 kPa | 9.46e-09
373 K, 50000 kPa | 8.87e-09
373 K, 67000 kPa | 8.01e-09
398 K, 1100 kPa | 1.48e-08
398 K, 11000 kPa | 1.34e-08
398 K, 31000 kPa | 1.14e-08
398 K, 51000 kPa | 1.06e-08
398 K, 69000 kPa | 9.67e-09
423 K, 1100 kPa | 1.67e-08
423 K, 11000 kPa | 1.62e-08
423 K, 29000 kPa | 1.36e-08
423 K, 51000 kPa | 1.27e-08
423 K, 65000 kPa | 1.14e-08
